Test results as given in publication PMC9024597, “The Biological Fate of a Novel Anticancer Drug Candidate TNBG-5602: Metabolic Profile, Interaction with CYP450, and Pharmacokinetics in Rats” (Molecules, 2022).

Experiment: Pharmacokinetics in rats after a single intravenous administration
Description: Sample separation was carried out on a CSH C18 Column (3.0 × 75 mm, 1.7 μm). The mobile phase consisted of Eluent A (0.1% aqueous formic acid) and Eluent B (acetonitrile: methanol, 80:20, v/v) at a flow rate of 0.4 mL min^−1. […] The column temperature was set to 35 °C. The injection volume was 5 μL. The optimized spectrometric parameters were set as follows: a capillary voltage of 4 kV, gas temperature of 300 °C, gas flow rate of 5 L min^−1, nebulizer of 45 Psi, sheath gas temperature of 250 °C, and sheath gas flow rate of 10 L min^−1. The UPLC-MS/MS data were acquired and processed using the Mass Hunter MS Optimizer software (version B.07.00). Detection was performed under multiple reaction monitoring (MRM) mode with the positive-ion electrospray-ionization (ESI) mode.
For the pharmacokinetic analyses, five rats were administered at a dose of 4.8 mg kg^−1 body weight via the caudal vein.
The whole blood samples were immediately centrifuged at 13,000 rpm for 5 min upon collection, and the supernatants were stored at −80 °C until analysis.
Obtained plasma (50 μL) was thawed and spiked with 50 μL of the IS working solution (50 ng mL^−1). The mixture was deproteinized and extracted using 1 mL of acetonitrile by using a vortex for 2 min.

[1] = rats, i.v. 4.8 mg kg^−1, non-compartment model, mean, n = 5
[2] = rats, i.v. 4.8 mg kg^−1, two-compartment model, mean, n = 5

CN(C)CCN1CC2c3ccccc3CCN2c2nc3ccccc3nc21 (stereo not shown) [TNBG-5602]
k el (rat, in vivo, iv, 4.8 mg/kg): 6.67e-05 s⁻¹
half-life (rat, plasma, iv, 4.8 mg kg^−1, half-life, rats): ~12 h
Cmax (rat, plasma, iv, 4.8 mg/kg): 171 ng/mL
MRT inf (rat, plasma, iv, 4.8 mg/kg): 15.5 h
MRT last (rat, plasma, iv, 4.8 mg/kg): 7.13 h
Vd (rat, plasma, iv, 4.8 mg/kg): 20.2 L
clearance (rat, plasma, iv, 4.8 mg/kg, CL (clearance), rats, i.v. 4.8 mg kg^−1, two-compartment model, mean, n = 5): 22 mL/min
clearance (rat, plasma, iv, 4.8 mg/kg, CLt (total body clearance), rats, i.v. 4.8 mg kg^−1, non-compartment model, mean, n = 5): 19 mL/min
Tmax (rat, plasma, iv, 4.8 mg/kg, Tmax, rats, i.v. 4.8 mg kg^−1, non-compartment model, mean, n = 5): ≤ 5 min
half-life (rat, plasma, iv, 4.8 mg/kg, t1/2, rats, i.v. 4.8 mg kg^−1, non-compartment model, mean, n = 5): 11.6 h
half-life (rat, plasma, iv, 4.8 mg/kg, t1/2β (elimination half-life), rats, i.v. 4.8 mg kg^−1, two-compartment model, mean, n = 5): 11.8 h
AUC(0–t) [1]: 45513 µg·min/L
AUC(0–∞) [1]: 56248 µg·min/L
t1/2 [1]: 11.56 h
A (zero-time intercept of the α distribution phase) [2]: 127.2 µg/L
B (zero-time intercept of the elimination phase) [2]: 57.6 µg/L
K12 (transfer rate constant central to peripheral compartment) [2]: 0.028 min⁻¹
K21 (transfer rate constant peripheral to central compartment) [2]: 0.019 min⁻¹
Vc (apparent volume of the central compartment) [2]: 6.985 L
Vp (apparent volume of the peripheral compartment) [2]: 13.2 L
t1/2α [2]: 0.457 h
distribution volume of the peripheral compartment relative to the central compartment (rats, i.v., two-compartment model): 1.88 fold
in vivo clearance as % liver blood flow in rats (rats, i.v., liver blood flow ref 19): 200%
apparent volume of distribution relative to total body water in rats (rats, i.v., total body water ref 19): approximately 155 fold
apparent clearance rate from the central compartment to the peripheral compartment (rats, single i.v. administration): 0.028 ± 0.033 L/min
